Results on 11 compounds are retold here after ChEMBL document CHEMBL3046469, “Fungicidal Activities of 2-(Substituted Phenoxymethyl)phenyl-2-methoxyiminoacaetamide Derivatives” (1998).

For one test, the system named is Pyricularia oryzae. Description: Fungicidal activity against Magnaporthe oryzae assessed as rice blast disease control at 31.3 ppm foliar application for 24 hr before inoculation at 27 +/- 2 degC measured after 5 days by preventive manner. It is filed as functional.
As to `C#CCOc1ccc(OCc2ccccc2/C(=N\OC)C(=O)NC)cc1`, the Activity amounted to 90%.

Regarding `CNC(=O)/C(=N/OC)c1ccccc1COc1ccc(Br)cc1`, the Activity came to 90%.

For the compound `CNC(=O)/C(=N/OC)c1ccccc1COc1ccccc1F`, the Activity came to 90%.

Turning to `CNC(=O)/C(=N/OC)c1ccccc1COc1c(F)cccc1F`, the Activity was 90%.

As to `CNC(=O)/C(=N/OC)c1ccccc1COc1cc(C)c(Cl)c(C)c1`, the Activity is reported as 90%.

As for `CNC(=O)/C(=N/OC)c1ccccc1COc1ccc(C(F)(F)F)cc1`, the Activity worked out at 90%.

On to `CNC(=O)/C(=N/OC)c1ccccc1COc1ccc(Cl)c(Cl)c1`, for which the Activity is on record as 90%.

For the compound `CNC(=O)/C(=N/OC)c1ccccc1COc1ccccc1Cl`, the Activity worked out at 90%.

Consider `CNC(=O)/C(=N/OC)c1ccccc1COc1cc(F)cc(F)c1`, for which the Activity is given as 90%.

For the compound `CNC(=O)/C(=N/OC)c1ccccc1COc1cc(C)cc(C)c1`, the Activity was 90%.

Take `CNC(=O)/C(=N/OC)c1ccccc1COc1ccc(C)cc1`: the Activity is recorded as 90%.

The test system of another test is Podosphaera fuliginea. Description: Fungicidal activity against Podosphaera fuliginea assessed as cucumber powdery mildew control at 7.8 ppm foliar application 24 hr before inoculation at 23 +/- 2 degC by preventive manner. It is filed as functional.
As for `C#CCOc1ccc(OCc2ccccc2/C(=N\OC)C(=O)NC)cc1`, the Activity amounted to 90%.

In the case of `CNC(=O)/C(=N/OC)c1ccccc1COc1ccc(Br)cc1`, the Activity came out at 90%.

Turning to `CNC(=O)/C(=N/OC)c1ccccc1COc1ccccc1F`, the Activity is on record as 90%.

Take `CNC(=O)/C(=N/OC)c1ccccc1COc1c(F)cccc1F`: the Activity is 90%.

Regarding `CNC(=O)/C(=N/OC)c1ccccc1COc1cc(C)c(Cl)c(C)c1`, the Activity came out at 90%.

For the compound `CNC(=O)/C(=N/OC)c1ccccc1COc1ccc(C(F)(F)F)cc1`, the Activity was determined as 90%.

`CNC(=O)/C(=N/OC)c1ccccc1COc1ccccc1Cl`: the Activity is given as 90%.

As for `CNC(=O)/C(=N/OC)c1ccccc1COc1cc(F)cc(F)c1`, the Activity is reported as 90%.

Turning to `CNC(=O)/C(=N/OC)c1ccccc1COc1cc(C)cc(C)c1`, the Activity was determined as 90%.

In the next test the test system is Podosphaera fuliginea. Briefly: Fungicidal activity against Podosphaera fuliginea assessed as cucumber powdery mildew control at 2 ppm foliar application 24 hr before inoculation at 23 +/- 2 degC by preventive manner. The format is functional.
Turning to `CNC(=O)/C(=N/OC)c1ccccc1COc1ccc(Cl)c(Cl)c1`, the Activity was found to be 90%.

With `CNC(=O)/C(=N/OC)c1ccccc1COc1ccc(C)cc1`, the Activity was found to be 90%.

Another test has as its system Botrytis cinerea. Description: Fungicidal activity against Botryotinia fuckeliana assessed as cucumber gray mold disease control at 7.8 ppm foliar application […] at 22 +/- 2 degC by preventive manner. It is filed as functional.
Turning to `C#CCOc1ccc(OCc2ccccc2/C(=N\OC)C(=O)NC)cc1`, the Activity stood at 90%.

Turning to `CNC(=O)/C(=N/OC)c1ccccc1COc1ccc(Br)cc1`, the Activity is on record as 90%.

Turning to `CNC(=O)/C(=N/OC)c1ccccc1COc1ccccc1F`, the Activity was determined as 90%.

As for `CNC(=O)/C(=N/OC)c1ccccc1COc1cc(C)c(Cl)c(C)c1`, the Activity amounted to 90%.

For the compound `CNC(=O)/C(=N/OC)c1ccccc1COc1ccc(C(F)(F)F)cc1`, the Activity is given as 90%.

For the compound `CNC(=O)/C(=N/OC)c1ccccc1COc1ccc(Cl)c(Cl)c1`, the Activity is 90%.

Regarding `CNC(=O)/C(=N/OC)c1ccccc1COc1ccccc1Cl`, the Activity amounted to 90%.

Turning to `CNC(=O)/C(=N/OC)c1ccccc1COc1cc(F)cc(F)c1`, the Activity is 90%.

On to `CNC(=O)/C(=N/OC)c1ccccc1COc1cc(C)cc(C)c1`, for which the Activity amounted to 90%.

Turning to `CNC(=O)/C(=N/OC)c1ccccc1COc1ccc(C)cc1`, the Activity was determined as 90%.

The test system of a further test is Blumeria graminis f. sp. tritici. Description: Fungicidal activity against Blumeria graminis f. sp. tritici assessed as wheat powdery mildew disease control at 125 ppm foliar application for 48 hr before inoculation by preventive manner. It is filed as functional.
As for `C#CCOc1ccc(OCc2ccccc2/C(=N\OC)C(=O)NC)cc1`, the Activity is reported as 90%.

Another test has the same test system. Description: Fungicidal activity against Blumeria graminis f. sp. tritici assessed as wheat powdery mildew disease control at 7.8 ppm foliar application 48 24 hr before inoculation by preventive manner. It is filed as functional.
As to `CNC(=O)/C(=N/OC)c1ccccc1COc1c(F)cccc1F`, the Activity was determined as 90%.

For `CNC(=O)/C(=N/OC)c1ccccc1COc1cc(C)c(Cl)c(C)c1`, the Activity is 90%.

For `CNC(=O)/C(=N/OC)c1ccccc1COc1ccc(C(F)(F)F)cc1`, the Activity came out at 90%.

`CNC(=O)/C(=N/OC)c1ccccc1COc1ccc(Cl)c(Cl)c1`: the Activity worked out at 90%.

The test system is the same in a further test. Briefly: Fungicidal activity against Blumeria graminis f. sp. tritici assessed as wheat powdery mildew disease control at 2 ppm foliar application for 48 hr before inoculation by preventive manner. The format is functional.
For the compound `CNC(=O)/C(=N/OC)c1ccccc1COc1ccc(Br)cc1`, the Activity is given as 90%.

For the compound `CNC(=O)/C(=N/OC)c1ccccc1COc1ccccc1Cl`, the Activity was 90%.

Regarding `CNC(=O)/C(=N/OC)c1ccccc1COc1cc(F)cc(F)c1`, the Activity was found to be 90%.

As to `CNC(=O)/C(=N/OC)c1ccccc1COc1cc(C)cc(C)c1`, the Activity stood at 90%.

As to `CNC(=O)/C(=N/OC)c1ccccc1COc1ccc(C)cc1`, the Activity is given as 90%.

The test system of a further test is Thanatephorus cucumeris. Description: Fungicidal activity against Thanatephorus cucumeris assessed as rice sheath blight disease control at 125 ppm foliar application for 24 hr before inoculation at 26 +/- 2 degC measured after 5 days by preventive manner. It is filed as functional.
For `C#CCOc1ccc(OCc2ccccc2/C(=N\OC)C(=O)NC)cc1`, the Activity is below 90%.

For the compound `CNC(=O)/C(=N/OC)c1ccccc1COc1ccc(Br)cc1`, the Activity is below 90%.

In the case of `CNC(=O)/C(=N/OC)c1ccccc1COc1ccccc1F`, the Activity was found to be 90%.

Consider `CNC(=O)/C(=N/OC)c1ccccc1COc1c(F)cccc1F`, for which the Activity was found to be 90%.

As for `CNC(=O)/C(=N/OC)c1ccccc1COc1cc(C)c(Cl)c(C)c1`, the Activity is below 90%.

For `CNC(=O)/C(=N/OC)c1ccccc1COc1ccc(C(F)(F)F)cc1`, the Activity is below 90%.

`CNC(=O)/C(=N/OC)c1ccccc1COc1ccc(Cl)c(Cl)c1`: the Activity was below 90%.

For the compound `CNC(=O)/C(=N/OC)c1ccccc1COc1ccccc1Cl`, the Activity was found to be 90%.

As for `CNC(=O)/C(=N/OC)c1ccccc1COc1cc(F)cc(F)c1`, the Activity came out at 90%.

Regarding `CNC(=O)/C(=N/OC)c1ccccc1COc1ccc(C)cc1`, the Activity is reported as below 90%.

Another test concerns Thanatephorus cucumeris. Description: Fungicidal activity against Thanatephorus cucumeris assessed as rice sheath blight disease control at 31.3 ppm foliar application for 24 hr before inoculation at 26 +/- 2 degC measured after 5 days by preventive manner. The format is functional.
For the compound `CNC(=O)/C(=N/OC)c1ccccc1COc1cc(C)cc(C)c1`, the Activity was determined as 90%.

A further test deals with Pseudoperonospora cubensis. Briefly: Fungicidal activity against Pseudoperonospora cubensis assessed as cucumber downy mildew disease control at 125 ppm foliar application 24 hr before inoculation onto the abaxial(untreated) surface of leaf by preventive manner. It is filed as functional.
Take `CNC(=O)/C(=N/OC)c1ccccc1COc1cc(C)c(Cl)c(C)c1`: the Activity amounted to 90%.

For `CNC(=O)/C(=N/OC)c1ccccc1COc1ccccc1Cl`, the Activity was found to be 90%.

On to `CNC(=O)/C(=N/OC)c1ccccc1COc1cc(C)cc(C)c1`, for which the Activity is given as below 90%.

Turning to `CNC(=O)/C(=N/OC)c1ccccc1COc1ccc(C)cc1`, the Activity is below 90%.

A further test relates to Pseudoperonospora cubensis. Description: Fungicidal activity against Pseudoperonospora cubensis assessed as cucumber downy mildew disease control at 31.3 ppm foliar application 24 hr before inoculation onto the abaxial(untreated) surface of leaf by preventive manner. It is filed as functional.
On to `C#CCOc1ccc(OCc2ccccc2/C(=N\OC)C(=O)NC)cc1`, for which the Activity is given as 90%.

As to `CNC(=O)/C(=N/OC)c1ccccc1COc1ccc(Br)cc1`, the Activity stood at 90%.

For `CNC(=O)/C(=N/OC)c1ccccc1COc1c(F)cccc1F`, the Activity worked out at 90%.

Take `CNC(=O)/C(=N/OC)c1ccccc1COc1ccc(Cl)c(Cl)c1`: the Activity was determined as 90%.

With `CNC(=O)/C(=N/OC)c1ccccc1COc1cc(F)cc(F)c1`, the Activity stood at 90%.

For a further test, the system named is Pseudoperonospora cubensis. Description: Fungicidal activity against Pseudoperonospora cubensis assessed as cucumber downy mildew disease control at 7.8 ppm foliar application 24 hr before inoculation onto the abaxial(untreated) surface of leaf by preventive manner. It is filed as functional.
Regarding `CNC(=O)/C(=N/OC)c1ccccc1COc1ccccc1F`, the Activity is on record as 90%.

Consider `CNC(=O)/C(=N/OC)c1ccccc1COc1ccc(C(F)(F)F)cc1`, for which the Activity stood at 90%.

The subject of a further test is Pseudoperonospora cubensis. Briefly: Fungicidal activity against Pseudoperonospora cubensis assessed as cucumber downy mildew disease control at 7.8 ppm foliar application 24 hr before inoculation onto the adaxial(treated) surface of leaf by preventive manner. The format is functional.
Turning to `C#CCOc1ccc(OCc2ccccc2/C(=N\OC)C(=O)NC)cc1`, the Activity is 90%.

In the case of `CNC(=O)/C(=N/OC)c1ccccc1COc1ccc(Br)cc1`, the Activity was 90%.

As for `CNC(=O)/C(=N/OC)c1ccccc1COc1ccccc1F`, the Activity was 90%.

`CNC(=O)/C(=N/OC)c1ccccc1COc1c(F)cccc1F`: the Activity is listed as 90%.

As to `CNC(=O)/C(=N/OC)c1ccccc1COc1ccc(C(F)(F)F)cc1`, the Activity is recorded as 90%.

In the case of `CNC(=O)/C(=N/OC)c1ccccc1COc1ccc(Cl)c(Cl)c1`, the Activity was 90%.

`CNC(=O)/C(=N/OC)c1ccccc1COc1ccccc1Cl`: the Activity stood at 90%.

On to `CNC(=O)/C(=N/OC)c1ccccc1COc1cc(F)cc(F)c1`, for which the Activity is listed as 90%.

The subject of another test is Pseudoperonospora cubensis. Description: Fungicidal activity against Pseudoperonospora cubensis assessed as cucumber downy mildew disease control at 2 ppm foliar application 24 hr before inoculation onto the adaxial(treated) surface of leaf by preventive manner. It is filed as functional.
`CNC(=O)/C(=N/OC)c1ccccc1COc1cc(C)c(Cl)c(C)c1`: the Activity turned out to be 90%.

`CNC(=O)/C(=N/OC)c1ccccc1COc1cc(C)cc(C)c1`: the Activity was found to be 90%.

`CNC(=O)/C(=N/OC)c1ccccc1COc1ccc(C)cc1`: the Activity is recorded as 90%.

In a further test the test system is Botrytis cinerea. Briefly: Fungicidal activity against Botryotinia fuckeliana assessed as cucumber gray mold disease control at 31.3 ppm foliar application […] at 22 +/- 2 degC by preventive manner. It is filed as functional.
As for `CNC(=O)/C(=N/OC)c1ccccc1COc1c(F)cccc1F`, the Activity is listed as 90%.
